Results published in PubChem BioAssay AID248 (DTP/NCI, 2004).
“And” between values parts separate entries of the source, which are not always exact repeats. Equal entries are not always repeated. Inconclusive results and toxic doses are left out.

Tested on: L1210 leukemia ip in BDF1 mice, survival T/C
Assay: NCI In Vivo Anticancer Drug Screen. Data for tumor model L1210 Leukemia (intraperitoneal) in B6D2F1 (BDF1) mice
Conditions: endpoint: mean survival time, higher = longer survival
Procedure, shortened: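 Survival endpoint. Drug-treated group vs vehicle group, expressed as T divided by C. Tumor passaged by transplantation.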

[1] = dose: 37.5 mg/kg/injection, schedule: Q01DX Z (ip), vehicle: carboxymethylcellulose (CMC)
[2] = dose: 100.0 mg/kg/injection, schedule: Q01DX009 (ip), vehicle: Klucel (hydroxypropylcellulose) (HPC)
[3] = dose: 200.0 mg/kg/injection, schedule: Q01DX009 (ip), vehicle: Klucel (hydroxypropylcellulose) (HPC)
[4] = dose: 50.0 mg/kg/injection, schedule: Q01DX009 (ip), vehicle: Klucel (hydroxypropylcellulose) (HPC)
[5] = dose: 100.0 mg/kg/injection, schedule: Q04DX003 (ip), vehicle: Klucel (hydroxypropylcellulose) (HPC)
[6] = dose: 200.0 mg/kg/injection, schedule: Q04DX003 (ip), vehicle: Klucel (hydroxypropylcellulose) (HPC)
[7] = dose: 400.0 mg/kg/injection, schedule: Q04DX003 (ip), vehicle: Klucel (hydroxypropylcellulose) (HPC)
[8] = dose: 100.0 mg/kg/injection, schedule: Q04DX003 (ip), vehicle: saline
[9] = dose: 200.0 mg/kg/injection, schedule: Q04DX003 (ip), vehicle: saline
[10] = dose: 50.0 mg/kg/injection, schedule: Q01DX001 (ip), vehicle: other
[11] = dose: 50.0 mg/kg/injection, schedule: Q01DX009 (ip), vehicle: saline with Tween-80
[12] = dose: 100.0 mg/kg/injection, schedule: Q04DX002 (ip), vehicle: saline with Tween-80
[13] = dose: 200.0 mg/kg/injection, schedule: Q04DX002 (ip), vehicle: saline with Tween-80
[14] = dose: 100.0 mg/kg/injection, schedule: Q01DX001 (ip), vehicle: saline
[15] = dose: 200.0 mg/kg/injection, schedule: Q01DX001 (ip), vehicle: saline
[16] = dose: 400.0 mg/kg/injection, schedule: Q01DX001 (ip), vehicle: saline
[17] = dose: 400.0 mg/kg/injection, schedule: Q01DX009 (ip), vehicle: Klucel (hydroxypropylcellulose) (HPC)

O=c1[nH]c2cc(Cl)c(Cl)cc2o1 was tested, and the T/C (dose: 19.0 mg/kg/injection, schedule: Q01DX Z (ip), vehicle: carboxymethylcellulose (CMC)) was 95 % of control, the T/C [1] was 95 % of control and the T/C (dose: 75.0 mg/kg/injection, schedule: Q01DX Z (ip), vehicle: carboxymethylcellulose (CMC)) was 96 % of control. For the same compound, the T/C [2] was 93 % of control, the T/C (dose: 100.0 mg/kg/injection, schedule: Q04DX003 (ip), vehicle: other) was 102 % of control and the T/C [3] was 93 % of control. The T/C (dose: 200.0 mg/kg/injection, schedule: Q04DX003 (ip), vehicle: other) was 95 % of control and the T/C (dose: 400.0 mg/kg/injection, schedule: Q04DX003 (ip), vehicle: other) was 97 % of control.

For O=C(COc1ccc(Br)cc1)Nc1ccc(Br)cc1, the T/C (dose: 100.0 mg/kg/injection, schedule: Q04DX002 (ip), vehicle: Klucel (hydroxypropylcellulose) (HPC)) was 95 % of control, the T/C (dose: 200.0 mg/kg/injection, schedule: Q04DX002 (ip), vehicle: Klucel (hydroxypropylcellulose) (HPC)) was 95 % of control and the T/C (dose: 400.0 mg/kg/injection, schedule: Q04DX002 (ip), vehicle: Klucel (hydroxypropylcellulose) (HPC)) was 89 % of control.

In the case of Cc1ccc(NC(=O)Sc2ccc(Cl)cc2)c([N+](=O)[O-])c1, the T/C [4] is reported as 109 % of control, the T/C [2] is reported as 98 % of control and the T/C [5] is reported as 102 % of control. The T/C [3] was 106 % of control, the T/C [6] was 104 % of control and the T/C [7] was 109 % of control.

For CC(=O)CC(=O)N1CCCCCC1, the T/C (dose: 100.0 mg/kg/injection, schedule: Q01DX009 (ip), vehicle: gum acacia) was 93 % of control, the T/C (dose: 100.0 mg/kg/injection, schedule: Q04DX003 (ip), vehicle: saline with Tween-80) was 98 % of control and the T/C (dose: 200.0 mg/kg/injection, schedule: Q01DX009 (ip), vehicle: gum acacia) was 98 % of control. For the same compound, the T/C (dose: 200.0 mg/kg/injection, schedule: Q04DX003 (ip), vehicle: saline with Tween-80) was 95 % of control, the T/C (dose: 400.0 mg/kg/injection, schedule: Q01DX009 (ip), vehicle: gum acacia) was 101 % of control and the T/C (dose: 400.0 mg/kg/injection, schedule: Q04DX003 (ip), vehicle: saline with Tween-80) was 102 % of control.

CCNC(=S)NCCO was tested, and the T/C (dose: 100.0 mg/kg/injection, schedule: Q04DX003 (ip), vehicle: saline sonified) was 97 % of control, the T/C (dose: 200.0 mg/kg/injection, schedule: Q04DX003 (ip), vehicle: saline sonified) was 90 % of control and the T/C (dose: 400.0 mg/kg/injection, schedule: Q04DX003 (ip), vehicle: saline sonified) was 97 % of control.

With CC(=O)CC(=O)NCCNC(=O)CC(C)=O the T/C [8] was 101 % of control, the T/C [9] was 100 % of control and the T/C (dose: 400.0 mg/kg/injection, schedule: Q04DX003 (ip), vehicle: saline) was 100 % of control.

For O=NN(CCCl)C(=O)Nc1ccc(C(F)(F)F)cc1, the T/C (dose: 4.6 mg/kg/injection, schedule: Q01DX Z (ip), vehicle: carboxymethylcellulose (CMC)) was 154 % of control, the T/C (dose: 9.37 mg/kg/injection, schedule: Q01DX Z (ip), vehicle: carboxymethylcellulose (CMC)) was 166 % of control and the T/C (dose: 18.75 mg/kg/injection, schedule: Q01DX Z (ip), vehicle: carboxymethylcellulose (CMC)) was 190 % of control. For the same compound, the T/C [1] was 108 % of control, the T/C (dose: 50.0 mg/kg/injection, schedule: Q01DX001 (ip), vehicle: carboxymethylcellulose (CMC)) was 151 % of control and the T/C (dose: 75.0 mg/kg/injection, schedule: Q01DX001 (ip), vehicle: carboxymethylcellulose (CMC)) was 167 % of control.

For CCCCCCCCCCCCOc1ccc(C(=O)O)cc1, the T/C [10] was 100 % of control, the T/C (dose: 100.0 mg/kg/injection, schedule: Q01DX001 (ip), vehicle: other) was 100 % of control and the T/C (dose: 200.0 mg/kg/injection, schedule: Q01DX001 (ip), vehicle: other) was 93 % of control. The T/C (dose: 400.0 mg/kg/injection, schedule: Q01DX001 (ip), vehicle: other) was 93 % of control.

For C[n+]1cc(C#N)cc(C#N)c1, the T/C (dose: 75.0 mg/kg/injection, schedule: Q01DX001 (ip), vehicle: saline) was 90 % of control and the T/C (dose: 150.0 mg/kg/injection, schedule: Q01DX001 (ip), vehicle: saline) was 108 % of control.

For C=CCOCC(O)CN(CCCC)CCCC (stereo not drawn), the T/C (dose: 25.0 mg/kg/injection, schedule: Q01DX009 (ip), vehicle: saline with Tween-80) was 95 % of control and the T/C [11] was 97 % of control.

For CN(C)S(=O)(=O)c1ccc(C=C(c2ccccc2)c2ccccc2)cc1, the T/C [5] was 95 % of control, the T/C [6] was 94 % of control and the T/C [7] was 91 % of control.

For CCCCCCCCC(CO)(CCCCCCC)C(=O)O (stereo not drawn), the T/C [12] was 88 % of control and the T/C [13] was 88 % of control.

For FC(F)(F)c1cccc(N2CCN(c3c4c(nc5ccccc35)CCCCC4)CC2)c1, the T/C [14] was 93 % of control, the T/C [15] was 95 % of control and the T/C [16] was 95 % of control.

For CC(C)(C)NC(=O)Oc1ccc(-c2ccccc2)cc1, the T/C [2] was 99 % of control, the T/C [3] was 95 % of control and the T/C [17] was 95 % of control.

For O=C(/C=C/c1ccc(Cl)cc1)c1ccc(Br)cc1, the T/C [2] was 94 % of control, the T/C [3] was 94 % of control and the T/C [17] was 92 % of control.

With COc1ccccc1-c1ccc([N+](=O)[O-])cc1[N+](=O)[O-] the T/C (dose: 100.0 mg/kg/injection, schedule: Q01DX001 (ip), vehicle: carboxymethylcellulose (CMC)) was 100 % of control, the T/C (dose: 200.0 mg/kg/injection, schedule: Q01DX001 (ip), vehicle: carboxymethylcellulose (CMC)) was 105 % of control and the T/C (dose: 400.0 mg/kg/injection, schedule: Q01DX001 (ip), vehicle: carboxymethylcellulose (CMC)) was 102 % of control.

C=C(NC(=O)C(NC(=O)C(CCCCN)NC(=O)C1CSC(C)C2NC(=O)C(CC(C)C)NC(=O)C(NC(=O)C(CCC(N)=O)NC(=O)C(CC(C)C)NC(=O)C(Cc3ccccc3)NC(=O)C3CSC(C)C(NC(=O)C(NC(=O)C4CSC(C)C(NC(=O)C5CSCC(NC(=O)C(CCCCN)NC(=O)C(N)Cc6c[nH]c7ccccc67)C(=O)NC(CCC(=O)O)C(=O)NC(=C)C(=O)NC(CC(C)C)C(=O)N5)C(=O)N5CCCC5C(=O)NCC(=O)N4)C(C)C)C(=O)NCC(=O)NC(C)C(=O)NC(CC(C)C)C(=O)NC(CCC(N)=O)C(=O)N/C(=C/C)C(=O)N3)C(C)SCC(NC2=O)C(=O)NC(CC(N)=O)C(=O)N1)C(C)CC)C(=O)NC(CCCCN)C(=O)O (stereo not drawn) was tested, and the T/C [12] was 108 % of control, the T/C [13] was 94 % of control and the T/C (dose: 400.0 mg/kg/injection, schedule: Q04DX002 (ip), vehicle: saline with Tween-80) was 92 % of control.

For COC(=O)/C=C(\C(=O)OC)N(C)c1ccccc1, the T/C [10] was 106 % of control.

With COC(=O)c1c2c(nc3ccccc13)-c1ccccc1C(C)(C)C2Br (stereo not drawn) the T/C [5] was 95 % of control, the T/C [6] was 92 % of control and the T/C [7] was 95 % of control.

For CCCCCCCCCCCCCC[S+](C)C, the T/C (dose: 12.5 mg/kg/injection, schedule: Q01DX009 (ip), vehicle: saline) was 108 % of control, the T/C (dose: 12.5 mg/kg/injection, schedule: Q04DX003 (ip), vehicle: saline) was 101 % of control and the T/C (dose: 25.0 mg/kg/injection, schedule: Q01DX009 (ip), vehicle: saline) was 123 % of control. For the same compound, the T/C (dose: 25.0 mg/kg/injection, schedule: Q04DX003 (ip), vehicle: saline) was 90 % of control and the T/C (dose: 50.0 mg/kg/injection, schedule: Q04DX003 (ip), vehicle: saline) was 96 % of control.

With CCOC(=O)C(O)(C#CC(C)C)C1CCCC1 (stereo not drawn) the T/C [14] was 107 % of control, the T/C [15] was 105 % of control and the T/C [16] was 102 % of control.

In the case of O=C1OC(c2ccccc2)=C/C1=C/c1ccccc1O, the T/C [11] is reported as 95 % of control, the T/C (dose: 100.0 mg/kg/injection, schedule: Q01DX009 (ip), vehicle: saline with Tween-80) is reported as 101 % of control and the T/C (dose: 200.0 mg/kg/injection, schedule: Q01DX009 (ip), vehicle: saline with Tween-80) is reported as 96 % of control.

NOCc1ccc(CON)cc1 was tested, and the T/C [8] was 95 % of control and the T/C [9] was 97 % of control.

For COc1ccc(C(=O)N/N=C/c2c(Cl)cccc2Cl)cc1, the T/C (dose: 25.0 mg/kg/injection, schedule: Q01DX009 (ip), vehicle: Klucel (hydroxypropylcellulose) (HPC)) was 92 % of control, the T/C [4] was 90 % of control and the T/C [2] was 93 % of control and 104 % of control.
